Results reported in patent publication US20090247543A1, “GATIFLOXACIN-CONTAINING AQUEOUS LIQUID PREPARATION” (Kyorin Pharmaceutical Co., Ltd., priority 2008, published 2009).
Converted amounts (≈) assume the structure as drawn.

Test system: Enterococcus faecalis (opthalmologic clinical isolated strain A-2-7)
Assay: Minimal inhibitory concentration used as indicator for T>MIC
Type: cell-based

MIC: 0.39 µg/mL (≈ 1.04 µM)
Structure (SMILES): COc1c(N2CCNC(C)C2)c(F)cc2c(=O)c(C(=O)O)cn(C3CC3)c12 (racemic) [Gatifloxacin, (±)-1-cyclopropyl-6-fluoro-1,4-dihydro-8-methoxy-7-(3-methyl-1-piperazinyl)-4-oxo-3-quinolinecarboxylic acid]
